Data taken from patent publication US7739055B2, “Methods and systems for generating and evaluating peptides” (priority 2005, dated 2010).
Values after ≈ are worked out from the molar mass of the structure shown. Where two headings read alike, the source gives them in different places. Where a SMILES comes first, the peptide text is derived from it.

How the values were obtained:
[1] = first concentration that prohibits growth by OD at 24 hours, Table 1

Compound | MIC B. cereus (B. cereus; [1]) | MIC E. coli (Escherichia coli; [1]) | MIC E. coli (Escherichia coli; 24 h) | MIC B. cereus (B. cereus; 24 h)
GVVGKLASKVVPSVFGSFTK [Peptide 34] | + (MIC greater than 256 ug/mL) | + (MIC greater than 256 ug/mL) | – | –
ALVYAGIKKTAFLKVQKCDG [Shuffled 33] | + (MIC greater than 256 ug/mL) | + (MIC greater than 256 ug/mL) | – | –
PSLLYKAKAVFCKPSAVAVF [Shuffled 62] | ++ (MIC greater than 128 ug/mL, not sufficiently soluble to test as 256 ug/mL) | ++ (MIC greater than 128 ug/mL, not sufficiently soluble to test as 256 ug/mL) | – | –
SVVFGVASKVVPSVIGKVKT [Peptide 69] | + (MIC greater than 256 ug/mL) | + (MIC greater than 256 ug/mL) | – | –
IASAVPVCVKGKISKSYISV [Shuffled 44] | + (MIC greater than 256 ug/mL) | + (MIC greater than 256 ug/mL) | – | –
CC[C@H](C)[C@H](NC(=O)[C@H](Cc1ccccc1)NC(=O)CN)C(=O)NCC(=O)N[C@@H](CCCCN)C(=O)N[C@@H](CC(C)C)C(=O)N[C@@H](C)C(=O)N[C@@H](CO)C(=O)N[C@@H](CCCCN)C(=O)N[C@H](C(=O)N[C@H](C(=O)N1CCC[C@H]1C(=O)N[C@@H](CO)C(=O)N[C@H](C(=O)N[C@@H](Cc1ccc(O)cc1)C(=O)N[C@@H](CS)C(=O)N[C@@H](CCCCN)C(=O)N[C@H](C(=O)N[C@H](C(=O)NCC(=O)O)[C@@H](C)O)C(C)C)C(C)C)C(C)C)C(C)C [Peptide 24] (H-GFIGKLASKVVPSVYCKVTG-OH; N-terminus and C-terminus assumed) | + (MIC greater than 256 ug/mL) | – | 128 µg/mL (≈ 62.3 µM) | –
FKVVISKPGLSVRVGTALVT [Shuffled 65] | ++ (MIC greater than 128 ug/mL, not sufficiently soluble to test as 256 ug/mL) | ++ (MIC greater than 128 ug/mL, not sufficiently soluble to test as 256 ug/mL) | – | –
STVKVASKLAVVVSPISKGS [Shuffled 36] | + (MIC greater than 256 ug/mL) | + (MIC greater than 256 ug/mL) | – | –
LPAVFKLASKVVPSVFGLVK [Peptide 42] | + (MIC greater than 256 ug/mL) | + (MIC greater than 256 ug/mL) | – | –
GAVFGVASKVVPSVFSAIKK [Peptide 84] | + (MIC greater than 256 ug/mL) | + (MIC greater than 256 ug/mL) | – | –
LSAVGKIASKVVPSVIGAFK [Peptide 6] | + (MIC greater than 256 ug/mL) | + (MIC greater than 256 ug/mL) | – | –
KTVPVVLKASIKVSSAGFGF [Shuffled 82] | + (MIC greater than 256 ug/mL) | + (MIC greater than 256 ug/mL) | – | –
SALGRLASKVVPAVIGKVTT [Peptide 56] | + (MIC greater than 256 ug/mL) | + (MIC greater than 256 ug/mL) | – | –
CC[C@H](C)[C@H](NC(=O)CN)C(=O)NCC(=O)N[C@@H](C)C(=O)N[C@H](C(=O)N[C@@H](CC(C)C)C(=O)N[C@@H](CCCCN)C(=O)N[C@H](C(=O)N[C@@H](CC(C)C)C(=O)N[C@H](C(=O)N[C@H](C(=O)NCC(=O)N[C@@H](CC(C)C)C(=O)N1CCC[C@H]1C(=O)N[C@@H](C)C(=O)N[C@@H](CC(C)C)C(=O)N[C@H](C(=O)N[C@@H](CO)C(=O)N[C@@H](Cc1c[nH]c2ccccc12)C(=O)N[C@H](C(=O)N[C@@H](CCCCN)C(=O)N[C@@H](CCCNC(=N)N)C(=O)N[C@@H](CCCCN)C(=O)N[C@@H](CCCNC(=N)N)C(=O)N[C@@H](CCC(N)=O)C(=O)N[C@@H](CCC(N)=O)C(N)=O)[C@@H](C)CC)[C@@H](C)CC)[C@@H](C)O)[C@@H](C)O)C(C)C)C(C)C [Melittin] | – | – | – | 8 µg/mL (≈ 2.81 µM)
